Measurements from the NIST ThermoML archive (doi:10.1021/acs.jced.8b00681).

Test: mn = molality of the nth substance listed, in mol/kg
Conditions: 100 kPa, Liquid, Frequency=2 MHz, Linear variable-path acoustic interferometer

OC[C@H]1OC(O)C[C@@H](O)[C@@H]1O (stereo partly drawn) [2-deoxy-D-glucose] + O
speed of sound [m/s]
Conditions	m1 = 0.04452	m1 = 0.06258	m1 = 0.08916	m1 = 0.09804	m1 = 0.1031	m1 = 0.1275
288.15 K	1468.5	1469.6	1471.1	1471.6	1471.9	1473.2
298.15 K	1499.2	1500.1	1501.4	1501.9	1502.1	1503.3
308.15 K	1522.1	1523	1524.3	1524.7	1524.9	1526.1
318.15 K	1538.2	1539	1540.1	1540.5	1540.7	1541.6

O=C[C@H](O)[C@@H](O)[C@H](O)[C@H](O)CO [D-glucose] + O
speed of sound [m/s]
Conditions	m1 = 0.054	m1 = 0.07085	m1 = 0.09905	m1 = 0.1196	m1 = 0.1221	m1 = 0.1388
288.15 K	–	1470.8	1472.7	1474.2	1474.3	1475.5
298.15 K	–	1501.1	1502.9	1504.2	1504.3	1505.3
308.15 K	1523.1	1524.7	1527.4	1529.3	1529.5	1531.1
318.15 K	–	1540.7	1543.2	1545	1545.2	1546.6

OC[C@H]1O[C@H](OC[C@H]2O[C@H](O[C@]3(CO)O[C@H](CO)[C@@H](O)[C@@H]3O)[C@H](O)[C@@H](O)[C@@H]2O)[C@H](O)[C@@H](O)[C@H]1O [D-raffinose] + O
speed of sound [m/s]
Conditions	m1 = 0.05849	m1 = 0.0723	m1 = 0.087	m1 = 0.1083	m1 = 0.1225	m1 = 0.143
288.15 K	1478.1	1481	1484.1	1488.6	1491.6	1496
298.15 K	1509	1512	1515.1	1519.7	1522.7	1527.1
308.15 K	1531.9	1534.8	1537.9	1542.3	1545.3	1549.7
318.15 K	1548.3	1551.1	1554.1	1558.5	1561.5	1565.8

O=C[C@H](O)[C@H](O)[C@H](O)CO [D-ribose] + O
speed of sound [m/s]
Conditions	m1 = 0.04514	m1 = 0.06075	m1 = 0.08352	m1 = 0.112	m1 = 0.1348	m1 = 0.1523
288.15 K	1468.7	1469.7	1471.1	1472.9	1474.3	1475.4
298.15 K	1499.1	1499.9	1501	1502.5	1503.6	1504.5
308.15 K	1522	1522.7	1523.7	1525.1	1526.1	1526.9
318.15 K	1538.3	1538.9	1539.9	1541	1542	1542.8

N.O=P(O)(O)O [ammonium dihydrogen phosphate] + O
speed of sound [m/s]
Conditions	288.15 K	298.15 K	308.15 K	318.15 K
m1 = 0.5	1506.4	1534.2	1555.1	1570.8
m1 = 1	1554.5	1579.6	1598.1	1610.2
m1 = 1.5	1609.2	1629.9	1645.1	1654.4
m1 = 2	1672.6	1686.2	1697.2	1703.1

CO[C@H]1O[C@H](CO)[C@@H](O)[C@H](O)[C@H]1O [methyl-α-D-glucopyranoside] + O
speed of sound [m/s]
Conditions	m1 = 0.05678	m1 = 0.06847	m1 = 0.08732	m1 = 0.1192	m1 = 0.1293	m1 = 0.1466
288.15 K	1470.7	1471.7	1473.2	1475.8	1476.6	1478
298.15 K	1501.2	1502	1503.5	1506	1506.7	1508
308.15 K	1524	1524.9	1526.3	1528.6	1529.4	1530.6
318.15 K	1540.5	1541.3	1542.7	1545	1545.7	1546.9

O=P([O-])(O)O.[Na+] [sodium dihydrogen phosphate] + O
speed of sound [m/s]
Conditions	288.15 K	298.15 K	308.15 K	318.15 K
m1 = 0.5	1516.7	1547.3	1567.5	1582.6
m1 = 1	1563.2	1598	1618.9	1638.8
m1 = 1.5	1607.3	1649	1675	1704.8
m1 = 2	1649.2	1700.3	1735.7	1782.8

O=P([O-])([O-])[O-].[K+].[K+].[K+] [tripotassium phosphate] + O
speed of sound [m/s]
Conditions	288.15 K	298.15 K	308.15 K	318.15 K
m1 = 0.5	1586.2	1598.1	1609.9	1622.6
m1 = 1	1693.5	1698.6	1704.1	1708
m1 = 1.5	1789.2	1791.8	1793.8	1796
m1 = 2	1878.3	1882.5	1885.8	1889.4
